Measurements as given in patent publication US8318794B2, “Method of use of porphyrins in preparing a medicament for sonodynamic therapy and a method of sonodynamic therapy using porphyrins” (Science Group Pty. Ltd., priority 2008, dated 2012).

Columns and labels:
[1] = system: S-180 sarcoma; test: Animal Test A: SDT with dihydroporphin e4 in KM mouse S-180 sarcoma model; format: in vivo; settings: for Average Tumor Weights: 12 days after treatment
Protocol: The sound-sensitive agent, dihydroporphin e4, is prepared according to Chinese Patent No. 99119878.6. The agent is dissolved in water for injection in darkness to give a final concentration of 4 mg/mL. The resultant solution is stored at 4° C. in darkness.
The animal tumor model used in this study was the KM mouse S-180 sarcoma, which is one of the tumor models appointed by the China Food and Drug Administration (CFDA) for new anticancer drug testing. Mouse S-180 sarcoma cell line was commercially available from the Cancer Hospital affiliated to Sun Yat-sen University. The inbred strain of KM mice (female, about 18-20 g body weight) was bred and tested in a laboratory consistent with national standards for new drug tests (the Animal Experimental Centre of Guangzhou Chinese Traditional Medical University). The mouse S-180 sarcoma cell line was injected into and raised in the abdominal cavity of the KM mouse and regenerated 3 times by passing malignant ascites from one mouse to another to confirm their growth is stable.
The ultrasound having a frequency of 1.0 MHz and an adjustable power density in the range of 0.1-2.2 W/cm^2 is applied. The apparatus can emit parallel wave, continuous wave or discontinuous wave.
The ascites with S-180 cell suspension was drawn out from the abdomen of the third passage mouse, and germ-free physiological saline solution was added. The final concentration of the cell suspension was 1×10^7 cells/mL. 0.1 mL of the cell suspension was injected subcutaneously in the right axilla of the mouse to grow a solid tumor.
Three days later, a small mass with the average diameter of about 0.4 cm was seen and palpated on every implanted mouse axilla. These tumor-bearing mice are divided randomly into the following groups with 5 mice in each group: • 1) a blank control group (C); • 2) a ultrasound group (U), which are simply treated with ultrasound (having a frequency of 1.0 MHz and a power density of 1.6 W/cm^2) without injection of the sound-sensitive agent; • 3) a sound-sensitive agent group (E), which are simply injected with the sound-sensitive agent without treatment of ultrasound; • 4) a 0.4 group (EU1), which are injected with the sound-sensitive agent and subsequently treated with ultrasound having a frequency of 1.0 MHz and a power density of 0.4 W/cm^2; • 5) a 0.8 group (EU2), which are treated according to EU1 except using ultrasound having a power density of 0.8 W/cm^2; and • 6) a 1.6 group (EU3), which are treated according to EU1 except using ultrasound having a power density of 1.6 W/cm^2.
To prepare the mice for the experiment, the fur on the tumor-bearing area of the mice was removed with depilatory cream. For the E, EU1, EU2 and EU3 groups, the sound-sensitive agent was injected into each mouse abdominal cavity in a dose of 40 mg/kg in a dark room. The mice are kept in darkness.
(§1) Six hours after the injection, each mouse of the EU1, EU2 and EU3 groups and the U group is partially immerged in water with only their head remaining above the water surface. An ultrasound probe was then placed into the water to irradiate the tumor area at the above parameters for 3 minutes. The mice of each group are fed in a conventional way.
After treatment with SDT, primary tumor size were estimated by measuring perpendicular minor dimension (W) and major dimension (L) using sliding calipers every one or two days. Approximate tumor volume was calculated by the formula: W^2L×½.
12 days later, the mice are sacrificed by breaking the cervical vertebrae. The tumor tissues are separated and weighed on an electronic balance to calculate an average weight. Various groups are compared in terms of their respective average tumor weight at the 12th day.
In comparing the tumor weights of various groups, statistic analysis is performed using the Student's t test.

[2] = system: S-180 sarcoma; test: Animal Test B: SDT with lysine form of tin chlorophyllin in KM mouse S-180 sarcoma model; format: in vivo
Protocol: The sound-sensitive agent was the amino acid form of tin chlorophyllin, wherein M is Sn^4+, R1 is a residue of lysine, and R2 is a residue of lysine; the agent was obtained according to the previous process. The agent was dissolved in 0.1 mol/L phosphate buffer (pH 7.2-7.4) in darkness to give a final concentration of 2 mg/mL. The resultant solution was stored at 4° C. in a dark and quiet place.
The same as used in the above Animal Test A.
The same as established in the above Animal Test A.
After four days, touchable tumors with the average diameter of about 0.6 cm are developed subcutaneously at the right axillae of the mice. These tumor-bearing mice are divided randomly into the following groups: • 1) a blank control group (C); • 2) a ultrasound group (U), which are simply treated with ultrasound (having a frequency of 1.0 MHz and a power density of 1.2 W/cm^2) without injection of the sound-sensitive agent; • 3) a sound-sensitive agent group (S), which are simply injected with the sound-sensitive agent without treatment of ultrasound; • 4) a 0.3 group (SU1), which are injected with the sound-sensitive agent and subsequently treated with ultrasound having a frequency of 1.0 MHz and a power density of 0.3 W/cm^2; • 5) a 0.6 group (SU2), which are treated according to SU1 except using ultrasound having a power density of 0.6 W/cm^2; and • 6) a 1.2 group (SU3), which are treated according to SU1 except using ultrasound having a power density of 1.2 W/cm^2.
A depilatory cream is applied to remove fur on the areas to be irradiated. For the S, SU1, SU2 and SU3 groups, the sound-sensitive agent is injected intraperitoneally to each mouse at a dose of 20 mg/kg in a dark room. The mice are then fed in darkness.
as §1, with “6 h” for “Six hours”, “after” for “after the”, “SU1, SU2” for “EU1, EU2”, “SU3” for “EU3”, “ultrasond” for “ultrasound”, “180 seconds.” for “3 minutes.”
The same as in the above Animal Test A.
15 days later, the mice are sacrificed by breaking the cervical vertebrae. The tumor tissues are separated and weighed on an electronic balance to calculate an average weight. Various groups are compared in terms of their respective average tumor weights at the 15th day.

[3] = system: right breast carcinoma, tumor metastasis in liver; test: Clinical case: SDT with lysine form of tin chlorophyllin; format: in vivo, human; settings: patient
Protocol: A patient with right breast carcinoma. […] 9, 2007 (see FIG. 5). The lysine form of tin chlorophyllin as indicated in the above animal test B was dissolved in 0.1 mol/L phosphate buffer (pH 7.4) and given to the patient through lingual absorption every day for 2 days. Total dose of the lysine form of tin chlorophyllin was 60 mg. After 24 h, the red light light-emitting diode (LED) was irradiated to the body surface followed by local ultrasound irradiating of the tumour area at the intensities of 2.0 W/cm^2 for 20 minutes in a water bathtub every day for 3 days. One week later, the treatment was repeated. After 3 cycles of SDT treatment with the lysine form of tin chlorophyllin, CT-PET scan on Jan.

Substance	tumor growth (FIG. 2) ([1]; SDT, ultrasound power density 0.4 W/cm^2-1.6 W/cm^2)	Average Tumor Weights ([1]; group E: 40 mg/kg into abdominal cavity, no ultrasound)	average tumor volume profile (FIG. 1) ([1]; group E: 40 mg/kg, no ultrasound)	Average Tumor Weights ([1]; group EU1: 40 mg/kg into abdominal cavity + ultrasound 1.0 MHz, 0.4 W/cm^2, 3 min, 6 h after injection)	Average Tumor Weights ([1]; group EU2: 40 mg/kg into abdominal cavity + ultrasound 1.0 MHz, 0.8 W/cm^2, 3 min, 6 h after injection)	average tumor volume profile (FIG. 1) ([1]; group EU3: 40 mg/kg + ultrasound 1.6 W/cm^2)	Average Tumor Weights ([1]; group EU3: 40 mg/kg into abdominal cavity + ultrasound 1.0 MHz, 1.6 W/cm^2, 3 min, 6 h after injection)	effect on the tumor (FIG. 4) ([2]; SDT, ultrasound power density 0.3 W/cm^2-1.2 W/cm^2)	Average Tumor Weight ([2]; group S: 20 mg/kg intraperitoneally, no ultrasound, 15 days after treatment)	average tumor volume profile (FIG. 3) ([2]; group S: 20 mg/kg, no ultrasound)	Average Tumor Weight ([2]; group SU1: 20 mg/kg intraperitoneally + ultrasound 1.0 MHz, 0.3 W/cm^2, 180 s, 6 h after injection, 15 days)	Average Tumor Weight ([2]; group SU2: 20 mg/kg intraperitoneally + ultrasound 1.0 MHz, 0.6 W/cm^2, 180 s, 6 h after injection, 15 days)	average tumor volume profile (FIG. 3) ([2]; group SU3: 20 mg/kg + ultrasound 1.2 W/cm^2)	Average Tumor Weight ([2]; group SU3: 20 mg/kg intraperitoneally + ultrasound 1.0 MHz, 1.2 W/cm^2, 180 s, 6 h after injection, 15 days)	Blood Routine and chemistry tests ([3]; after 3 cycles of SDT)	symptom ([3]; after 3 cycles of SDT)	CT-PET scan of liver metastasis after 3 cycles of SDT ([3]; total dose 60 mg by lingual absorption, red LED light + ultrasound 2.0 W/cm^2, 20 min, daily for 3 days per cycle)
dihydroporphin e4	tumor growth is significantly inhibited	1.8800 ± 0.3114 g	slower increase compared with the blank control group	0.7600 ± 0.0894 g	0.5800 ± 0.0837 g	even slower tumor development	0.5200 ± 0.0837 g	–	–	–	–	–	–	–	–	–	–
lysine form of tin chlorophyllin	–	–	–	–	–	–	–	killing effect on the tumor	0.269 ± 0.331 g	slower increase compared to the blank control group	0.0435 ± 0.031 g	0.022 ± 0.008 g	hardly increased during the first six days after the SDT treatment, and began to decrease from the 7th day, and noticeably lower at the 15th day than before the test	0.011 ± 0.004 g	normal result	much improved	the tumor shrank and the tumor metabolic activity was inhibited
